Read-outs that look alike come from different tables or passages of the source.
Experiments:
[1] = target: T1, caspase 3 (Homo sapiens, UniProt P42574); settings: cited from earlier work
T1 sequence (P42574 29-277): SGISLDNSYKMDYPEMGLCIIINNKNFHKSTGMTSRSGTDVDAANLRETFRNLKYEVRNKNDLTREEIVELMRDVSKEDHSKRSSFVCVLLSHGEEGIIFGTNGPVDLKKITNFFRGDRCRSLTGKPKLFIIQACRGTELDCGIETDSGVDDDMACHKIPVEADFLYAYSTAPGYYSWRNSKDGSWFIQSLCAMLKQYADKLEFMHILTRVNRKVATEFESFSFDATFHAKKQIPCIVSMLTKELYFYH

[2] = test system: SOD1 G93A mouse model of ALS; experiment: Survival in SOD1 G93A mouse model of ALS; settings: for Female (% effect on survival) / Female (Days) survival: females; for Combined (% effect on survival) / Combined (Days) survival: males+females; for Combined (Days) survival / Female (Days) survival / Male (Days) survival: mean; for Female (Days) survival / Male (Days) survival: treated; for Male (Days) survival / Male (% effect on survival): males;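 for all read-outs here: heterozygous transgenic SOD1 G93A mice dosed from 60 days of age until death, checked daily for death, compared with vehicle-treated controls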
Description: Model Description: The SOD1 G93A (high copy) mouse model is a mouse that carries 25 copies of the human G93A SOD mutation and is driven by the endogenous promoter.
Murine ALS model: Heterozygous transgenic mice carrying the human SOD-1 (G93A) gene were obtained from Jackson Laboratory (Bar Harbor, Me., USA) and experiments were performed under IRB protocol at Massachusetts College of Pharmacy.
Control Drug and Pharmacological Agent Preparation and Delivery: The drugs were formulated in suitable vehicles and control groups were given the same vehicle as treatment. […] Mice were treated from 60 days of age until death and were monitored daily for weight, neurological score and death.
Statistical Analysis: Statistical analysis on the neurological score, body weight and survival was done by utilizing ANOVA, Kaplan Meier, t-test, Cox's proportional hazards regression model and mixed linear model methods. All statistical analysis was performed using standard procedures known in the art.

[3] = test system: SOD1 G93A mouse model of ALS; experiment: Neurological score in SOD1 G93A mouse model of ALS; type: in vivo; settings: for Neurological score significance (Males & Females combined): p value, mixed piece wise linear analysis
Description: Neurological Scoring: From day 85 onward, neurological score was recorded on a 4-point scale: • 0=Normal reflex on the hind limbs (animal will splay its hind limbs when lifted by its tail) • 1=Abnormal reflex (Lack of splaying of hind limbs when animal is lifted by the tail). • 2=Abnormal reflex and visible evidence of paralysis • 3=Lack of reflex and total paralysis of hind limbs. • 4=Inability to right themselves when placed on the sides in 30 seconds or found dead. The animals are sacrificed at this stage if alive.

[4] = test system: IκB degradation and NF-κB mediated signal transduction; settings: at high doses (approximately 100 μM); cited from earlier work
[5] = test system: experimental autoimmune encephalomyelitis (EAE); settings: previous animal efficacy studies, cited from earlier work
[6] = test system: ALS patient; experiment: Ritonavir treatment of an ALS patient; type: in vivo, human; settings: one patient
From the text: The patient was on ventilator and non-ambulatory. The patient was paralyzed below the waist except the neck region, and communicated with head movement using Morse code based computer keys. […] The biceps and forearms of the patient were paralyzed for several years.
After administering Ritonavir® for nine months, the patient underwent neurological examination.

[7] = test system: proteasomal chymotrypsin activity; settings: at 5 uM concentration; cited from earlier work
[8] = in vivo; cited from earlier work
[9] = test system: antigen processing and MHC I expression; settings: cited from earlier work
[10] = target: LMP7 component of the immunoproteosome (Homo sapiens, UniProt P28062); settings: cited from earlier work
[11] = Maximal tolerated dose in the mouse studies; type: in vivo; settings: dose of these studies is quite close to it
Description: The dose of Ritonavi® in these studies (50 mg/Kg) is quite close to its maximal tolerated dose.

[12] = test system: AIDS patients; settings: human, in vivo; cited from earlier work
[13] = test system: cell proliferation; settings: by arresting cells in the GI phase the cell cycle; cited from earlier work
[14] = test system: patients with ALS; settings: Borras-Blasco et al. (1998); cited from earlier work
[15] = test system: proteasome; settings: at very high concentrations; cited from earlier work
[16] = Combined Ritonavir studies (100% Litter matched), vs control
[17] = Combined Ritonavir studies (100% Litter matched)
[18] = study Ritonavir-1, 50 mg/Kg/day IP
[19] = study Ritonavir-2, 50 mg/Kg/day IP
[20] = study Ritonavir-3, 50 mg/Kg/day IP
[21] = after nine months of administration

CC(C)c1nc(CN(C)C(=O)N[C@H](C(=O)N[C@@H](Cc2ccccc2)C[C@H](O)[C@H](Cc2ccccc2)NC(=O)OCc2cncs2)C(C)C)cs1 (relative stereo) [Ritonavir, 10-Hydroxy-2-methyl-5-(1-methylethyl)-4-thiazolyl]-3,6-dioxo-8,11-bis (phenylmethyl)-2,4,7,12-tetraazatridecan-13-oic acid, 5-thiazolylmethyl ester, [5S-(5R*,8R*,10R*,11R*)]]
activity of caspase 3 [1]: inhibit | Female (% effect on survival) [2, 16]: −1% | Combined (% effect on survival) [2, 16]: 2% | Combined (Days) survival ([2]; Combined Ritonavir studies (100% Litter matched), treated N=48): 141 days | Female (Days) survival [2, 17]: 138 days | Male (Days) survival [2, 17]: 144 days | Female (% effect on survival) ([2]; study Ritonavir-1, vs control): None | Combined (% effect on survival) ([2]; study Ritonavir-1, (mean treated-mean control)/mean control*100): 5% | Male (% effect on survival) ([2]; study Ritonavir-1, vs control): 10% | Combined (Days) survival ([2]; study Ritonavir-1, treated N=20, 50 mg/Kg/day IP): 145 days | Female (Days) survival [2, 18]: 141 days | Male (Days) survival [2, 18]: 149 days | Female (% effect on survival) ([2]; study Ritonavir-2, vs control): 6% | Combined (% effect on survival) ([2]; study Ritonavir-2, vs control): 7% | Male (% effect on survival) ([2]; study Ritonavir-2, vs control): 8% | Combined (Days) survival ([2]; study Ritonavir-2, treated N=18, 50 mg/Kg/day IP): 149 days | Female (Days) survival [2, 19]: 144 days | Male (Days) survival [2, 19]: 153 days | Female (% effect on survival) ([2]; study Ritonavir-3, vs control): −5% | Combined (% effect on survival) ([2]; study Ritonavir-3, vs control): 2% | Male (% effect on survival) ([2]; study Ritonavir-3, vs control): 7% | Combined (Days) survival ([2]; study Ritonavir-3, treated N=18, 50 mg/Kg/day IP): 137 days | Female (Days) survival [2, 20]: 134 days | Male (Days) survival [2, 20]: 139 days | survival, overall conclusion ([2]; three separate studies): prolongation | activity compared with positive control riluzole ([2]; three studies, based on neurological score and survival data): more active | Neurological score significance (Males & Females combined) ([3]; study Ritonavir-1): p < 0.0001 | Neurological score significance (Males & Females combined) ([3]; study Ritonavir-2): p < 0.0001 | Neurological score significance (Males & Females combined) ([3]; study Ritonavir-3): p = 0.0007 | disease progression (neurological score), overall conclusion ([3]; three separate studies): reproducible slowing | inhibition of IκB degradation and NF-κB mediated signal transduction [4]: inhibit | effect in the EAE model [5]: protective | effect in the EAE model ([5]; listed as pharmacological agent): prevented the development | therapeutic effects in an ALS patient ([6]; 400 mg/day for about nine months): ameliorating the effects of ALS, slowing progression of the disease, and improving survival | time until beneficial therapeutic effects were experienced ([6]; 400 mg/day): after three weeks | diaphragm strength (neurological examination) [6, 21]: gained enough strength to dislodge a tracheostomy cuff when sneezing | pectoral muscle strength [6, 21]: gained significant strength | swallowing (neurological examination) [6, 21]: able to swallow | muscles that had been paralyzed for years ([6]; after treatment): again under conscious control and showed electrical nerve activity | inhibition of proteasomal chymotrypsin activity [7]: inhibition | plasma levels, female animals compared to males [8]: higher plasma levels | antigen processing and MHC I expression [9]: decreased | binding to the LMP7 component of the immunoproteosome [10]: binds | maximal tolerated dose [11]: ~50 mg/kg | toleration in AIDS patients [12]: good toleration | cell proliferation [13]: suppress

Nc1nc2ccc(OC(F)(F)F)cc2s1 [Riluzole]
muscular strength of ALS patients [14]: does not appear to provide an improvement

CC(C)(C)NC(=O)[C@@H]1C[C@@H]2CCCC[C@@H]2CN1C[C@@H](O)[C@H](Cc1ccccc1)NC(=O)[C@H](CC(N)=O)NC(=O)c1ccc2ccccc2n1 [saquinavir]
alteration of proteasome activity [15]: alters proteasome activity

— patent US7902185B2, “Treatment of neurodegenerative diseases using proteasome modulators” (ALS Therapy Development Foundation, Inc., priority 2002, dated 2011)
